IC50 data for twelve compounds are collected here from patent publication US5852210A, “Cinnamic acid derivatives” (G. D. Searle & Co., priority 1997, dated 1998).

In test [1] the target is T1, Human vitronectin receptor (αv β3) (Homo sapiens, UniProt P05106+P06756).
T1 construct: Human vitronectin receptor (αv β3) was purified from human placenta; from tissue; host or cells: human placenta
Put plainly: Vitronectin adhesion assay (solid phase receptor assay, αvβ3). The format is binding. On the procedure: (§1) The activity of the compounds of the present invention was tested in the following assays.
Human vitronectin receptor (αv β3) was purified from human placenta as previously described [Pytela et al., Methods in Enzymology, 144:475-489 (1987)]. Human vitronectin was purified from fresh frozen plasma as previously described [Yatohgo et al., Cell Structure and Function, 13:281-292 (1988)]. Biotinylated human vitronectin was prepared by coupling NHS-biotin from Pierce Chemical Company (Rockford, Ill.) to purified vitronectin as previously described [Charo et al., J. Biol. Chem., 266(3):1415-1421 (1991)]. Assay buffer, OPD substrate tablets, and RIA grade BSA were obtained from Sigma (St. Louis, Mo.). Anti-biotin antibody was obtained from Calbiochem (La Jolla, Calif.). Linbro microtiter plates were obtained from Flow Labs (McLean, Va.). ADP reagent was obtained from Sigma (St. Louis, Mo.).
(§2) Solid Phase Receptor Assays
This assay was essentially the same as previously reported [Niiya et al., Blood, 70:475-483 (1987)]. The purified human vitronectin receptor (αv β3) was diluted from stock solutions to […] in Tris-buffered saline containing 1.0 mM Ca^++, Mg^++, and Mn^++, pH 7.4 (TBS^+++). The diluted receptor was immediately transferred to Linbro microtiter plates at 100 μL/well (100 ng receptor/well). The plates were sealed and incubated overnight at 4° C. to allow the receptor to bind to the wells. All remaining steps were at room temperature. The assay plates were emptied and 200 μL, of 1% RIA grade BSA in TBS^+++ (TBS^+++ /BSA) were added to block exposed plastic surfaces. Following a 2 hour incubation, the assay plates were washed with TBS^+++ using a 96 well plate washer. Logarithmic serial dilution of the test compound and controls were made starting at a stock concentration of 2 mM and using 2 nM biotinylated vitronectin in TBS^+++ /BSA as the diluent. This premixing of labeled ligand with test (or control) ligand, and subsequent transfer of 50 μL aliquots to the assay plate was carried out with a CETUS Propette robot; the final concentration of the labeled ligand was 1 nM and the highest concentration of test compound was 1.0×10^-4 M. The competition occurred for two hours after which all wells were washed with a plate washer as before. Affinity purified horseradish peroxidase labeled goat anti-biotin antibody was diluted 1:3000 in TBS^+++ /BSA and 125 μL were added to each well. After 30 minutes, the plates were washed and incubated with OPD/H2 O2 substrate in 100 mM/L Citrate buffer, pH 5.0. The plate was read with a microtiter plate reader at a wavelength of 450 nm and when the maximum-binding control wells reached an absorbance of about 1.0, the final A450 were recorded for analysis. The data were analyzed using a macro written for use with the EXCEL™ spreadsheet program. The mean, standard deviation, and % CV were determined for duplicate concentrations. The mean A450 values were normalized to the mean of four maximum-binding controls (no competitor added) (B-MAX). The normalized values were subjected to a four parameter curve fit algorithm [Rodbard et al., Int.

For test [2], the target named is T2, Human fibrinogen receptor (αIIb β3) (Homo sapiens, UniProt P05106+P08514).
T2 construct: Human fibrinogen receptor (αIIb β3) was purified from outdated platelets; from tissue; host or cells: human outdated platelets
T2 sequence (P08514 32-887 limits assumed): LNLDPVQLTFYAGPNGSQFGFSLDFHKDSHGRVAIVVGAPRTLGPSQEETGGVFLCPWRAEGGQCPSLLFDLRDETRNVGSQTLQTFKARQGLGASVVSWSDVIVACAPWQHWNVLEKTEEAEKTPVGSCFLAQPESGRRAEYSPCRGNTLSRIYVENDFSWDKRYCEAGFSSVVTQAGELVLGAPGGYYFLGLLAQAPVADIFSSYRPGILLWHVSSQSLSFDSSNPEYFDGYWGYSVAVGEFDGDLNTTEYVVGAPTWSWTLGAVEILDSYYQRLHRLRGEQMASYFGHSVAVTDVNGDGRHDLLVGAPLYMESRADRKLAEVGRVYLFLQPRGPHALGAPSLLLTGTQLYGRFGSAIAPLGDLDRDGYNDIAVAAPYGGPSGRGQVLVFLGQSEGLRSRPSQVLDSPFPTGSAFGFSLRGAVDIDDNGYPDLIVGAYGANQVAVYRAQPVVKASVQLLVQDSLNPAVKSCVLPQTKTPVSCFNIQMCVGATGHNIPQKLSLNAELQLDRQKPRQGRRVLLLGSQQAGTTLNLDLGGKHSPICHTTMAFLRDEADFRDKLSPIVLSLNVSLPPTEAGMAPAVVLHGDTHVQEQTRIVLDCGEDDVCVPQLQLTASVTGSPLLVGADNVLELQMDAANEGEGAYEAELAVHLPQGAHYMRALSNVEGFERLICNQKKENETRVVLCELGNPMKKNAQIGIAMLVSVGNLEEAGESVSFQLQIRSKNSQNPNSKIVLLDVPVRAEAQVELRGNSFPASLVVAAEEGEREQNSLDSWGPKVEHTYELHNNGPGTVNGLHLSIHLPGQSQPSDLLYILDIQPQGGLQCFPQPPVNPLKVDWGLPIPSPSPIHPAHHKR
T2 sequence (P08514 891-1039 limits assumed): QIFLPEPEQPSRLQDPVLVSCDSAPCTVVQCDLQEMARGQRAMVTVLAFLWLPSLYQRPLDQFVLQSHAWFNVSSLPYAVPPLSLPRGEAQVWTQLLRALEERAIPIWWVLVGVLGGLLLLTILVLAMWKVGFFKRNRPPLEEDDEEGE
T2 sequence (P05106 27-788): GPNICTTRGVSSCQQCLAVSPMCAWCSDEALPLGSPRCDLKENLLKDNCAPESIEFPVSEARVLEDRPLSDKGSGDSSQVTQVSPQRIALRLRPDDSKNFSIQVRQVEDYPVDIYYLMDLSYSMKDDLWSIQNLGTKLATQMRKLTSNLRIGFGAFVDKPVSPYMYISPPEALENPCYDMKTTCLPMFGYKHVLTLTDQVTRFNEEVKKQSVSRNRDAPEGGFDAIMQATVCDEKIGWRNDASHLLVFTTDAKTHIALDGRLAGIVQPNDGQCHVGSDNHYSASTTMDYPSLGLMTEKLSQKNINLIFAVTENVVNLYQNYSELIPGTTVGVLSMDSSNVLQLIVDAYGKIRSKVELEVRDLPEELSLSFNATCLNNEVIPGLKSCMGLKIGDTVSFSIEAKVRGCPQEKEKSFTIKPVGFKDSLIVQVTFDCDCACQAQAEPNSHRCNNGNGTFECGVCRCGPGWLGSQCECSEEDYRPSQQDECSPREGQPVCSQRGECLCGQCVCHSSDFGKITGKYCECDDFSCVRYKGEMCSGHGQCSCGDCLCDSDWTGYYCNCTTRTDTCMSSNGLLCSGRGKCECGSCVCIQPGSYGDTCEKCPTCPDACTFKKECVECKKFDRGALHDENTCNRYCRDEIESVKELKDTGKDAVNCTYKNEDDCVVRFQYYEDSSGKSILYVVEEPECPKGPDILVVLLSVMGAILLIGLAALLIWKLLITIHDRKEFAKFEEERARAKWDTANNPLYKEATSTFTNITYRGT
Put plainly: Purified IIb/IIIa receptor assay (solid phase receptor assay). To be noted: inhibition of binding of biotinylated human vitronectin (1 nM) to purified receptor; Table I. On the procedure: as §1
Human fibrinogen receptor (αIIb β3) was purified from outdated platelets. (Pytela, R., Pierschbacher, M. D., Argraves, S., Suzuki, S., and Rouslahti, E. "Arginine-Glycine-Aspartic acid adhesion receptors", Methods in Enzymology 144(1987):475-489.) Human vitronectin was purified from fresh frozen plasma as described in Yatohgo, T., Izumi, M., Kashiwagi, H., and Hayashi, M., "Novel purification of vitronectin from human plasma by heparin affinity chromatography," Cell Structure and Function 13(1988):281-292. Biotinylated human vitronectin was prepared by coupling NHS-biotin from Pierce Chemical Company (Rockford, Ill.) to purified vitronectin as previously described. (Charo, I. F., Nannizzi, L., Phillips, D. R., Hsu, M. A., Scarborough, R. M., "Inhibition of fibrinogen binding to GP IIb/IIIa by a GP IIIa peptide", J. Biol. Chem. 266(3) (1991): 1415-1421.) Assay buffer, OPD substrate tablets, and RIA grade BSA were obtained from Sigma (St. Louis, Mo.). Anti-biotin antibody was obtained from Calbiochem (La Jolla, Calif.). Linbro microtiter plates were obtained from Flow Labs (McLean, Va.). ADP reagent was obtained from Sigma (St. Louis, Mo.).
as §2
This assay is essentially the same reported in Niiya, K., Hodson, E., Bader, R., Byers-Ward, V. Koziol, J. A., Plow, E. F. and Ruggeri, Z. M., "Increased surface expression of the membrane glycoprotein IIb/IIIa complex induced by platelet activation: Relationships to the binding of fibrinogen and platelet aggregation", Blood 70 (1987):475-483. The purified human fibrinogen receptor (αIIb β3) was diluted from stock solutions to 1.0 μg/mL in Tris-buffered saline containing 1.0 mM Ca^++, Mg^++, and Mn^++, pH 7.4 (TBS^+++). The diluted receptor was immediately transferred to Linbro microtiter plates at 100 μL/well (100 ng receptor/well). The plates were sealed and incubated overnight at 4° C. to allow the receptor to bind to the wells. All remaining steps were at room temperature. The assay plates were emptied and 200 μL of 1% RIA grade BSA in TBS^+++ (TBS^+++ /BSA) were added to block exposed plastic surfaces. Following a 2 hour incubation, the assay plates were washed with TBS^+++ using a 96 well plate washer. Logarithmic serial dilution of the test compound and controls were made starting at a stock concentration of 2 mM and using 2 nM biotinylated vitronectin in TBS^+++ /BSA as the diluent. This premixing of labeled ligand with test (or control) ligand, and subsequent transfer of 50 μL aliquots to the assay plate was carried out with a CETUS Propette robot; the final concentration of the labeled ligand was 1 nM and the highest concentration of test compound was 1.0×10^-4 M. The competition occurred for two hours after which all wells were washed with a plate washer as before. Affinity purified horseradish peroxidase labeled goat anti-biotin antibody was diluted 1:3000 in TBS^+++ /BSA and 125 μL were added to each well. After 30 minutes, the plates were washed and incubated with […]/H2 O2 substrate in 100 mM/L citrate buffer, pH 5.0. The plate was read with a microtiter plate reader at a wavelength of 450 nm and when the maximum-binding control wells reached an absorbance of about 1.0, the final A450 were recorded for analysis. The data were analyzed using a macro written for use with the EXCEL™ spreadsheet program. The mean, standard deviation, and % CV were determined for duplicate concentrations. The mean A450 values were normalized to the mean of four maximum-binding controls (no competitor added) (B-MAX). The normalized values were subjected to a four parameter curve fit algorithm, [Robard et al., Int.

[3] abbreviates: inhibition of binding of biotinylated human vitronectin (1 nM) to purified receptor, Table I, read-out: AvB3 IC50.

Where a name gives a salt, the structure may show the parent alone. Read-outs that look alike come from different tables or passages of the source.

T1 sequence (P06756 31-889 limits assumed): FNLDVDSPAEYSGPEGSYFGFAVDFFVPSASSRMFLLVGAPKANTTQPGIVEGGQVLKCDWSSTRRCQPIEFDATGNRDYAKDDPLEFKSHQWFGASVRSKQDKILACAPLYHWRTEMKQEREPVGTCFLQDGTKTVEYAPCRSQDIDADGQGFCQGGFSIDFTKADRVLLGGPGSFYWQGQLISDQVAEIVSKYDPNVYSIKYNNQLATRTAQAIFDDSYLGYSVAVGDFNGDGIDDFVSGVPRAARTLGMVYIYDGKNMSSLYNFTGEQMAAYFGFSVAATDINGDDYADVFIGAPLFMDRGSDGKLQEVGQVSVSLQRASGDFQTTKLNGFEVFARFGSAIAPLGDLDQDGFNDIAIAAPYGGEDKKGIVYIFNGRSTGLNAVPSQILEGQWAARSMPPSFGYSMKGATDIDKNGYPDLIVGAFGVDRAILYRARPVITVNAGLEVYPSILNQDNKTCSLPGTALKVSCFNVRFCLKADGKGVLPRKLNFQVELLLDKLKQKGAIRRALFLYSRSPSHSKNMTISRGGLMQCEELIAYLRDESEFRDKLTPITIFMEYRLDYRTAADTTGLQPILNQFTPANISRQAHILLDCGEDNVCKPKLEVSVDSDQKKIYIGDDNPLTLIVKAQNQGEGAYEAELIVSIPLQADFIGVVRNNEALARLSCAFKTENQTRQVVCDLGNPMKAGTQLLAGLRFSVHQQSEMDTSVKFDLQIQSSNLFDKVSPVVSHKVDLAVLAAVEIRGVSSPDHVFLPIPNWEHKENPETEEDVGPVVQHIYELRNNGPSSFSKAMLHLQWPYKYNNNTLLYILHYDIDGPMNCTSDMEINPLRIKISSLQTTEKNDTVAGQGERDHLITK
T1 sequence (P06756 891-1048 limits assumed): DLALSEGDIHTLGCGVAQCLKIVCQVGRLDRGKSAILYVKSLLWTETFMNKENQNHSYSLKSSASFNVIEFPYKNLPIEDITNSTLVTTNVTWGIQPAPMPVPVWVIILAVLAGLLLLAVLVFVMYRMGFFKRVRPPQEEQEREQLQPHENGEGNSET
T1 sequence (P05106 27-788): as the sequence (P05106 27-788) above

As usually defined, the IC50 is the concentration needed to halve the response being measured. Consider `N=C(N)Nc1cccc(C(O)CCc2cccc(/C=C/C(=O)O)c2)c1` (racemic) [Example 96, 3-[3-[3-[3-[(aminoiminomethyl)amino]phenyl]-3-hydroxypropyl]phenyl]propenoic acid, trifluoroacetate salt], for which the IC50 was found to be 207 nM in test [1] (setting [3]) and 15600 nM in test [2].

Regarding `N=C(N)Nc1cccc(C(=O)Nc2ccc(C(=CC(=O)O)c3ccccc3)cc2)c1` (single isomer, unassigned) [Example 58, 3-[4-[[[3-[(aminoiminomethyl)amino]phenyl]-carbonyl]amino]phenyl]-3-phenylpropenoic acid, trifluoroacetate salt], the figures for the IC50 in test [1] (setting [3]) and in test [2] were 79.8 nM and 2270 nM, respectively.

For `COC(=O)/C=C/c1cccc(CNC(=O)c2cccc(NC(=N)N)c2)c1` [Example 1, methyl 3-[3-[[[[3-[(aminoiminomethyl)-amino]phenyl]carbonyl]amino]methyl]phenyl]-2-propenoate, trifluoroacetate salt], the IC50 was 15800 nM in test [1] (setting [3]) and above 100000 nM in test [2].

With `N=C(N)Nc1cccc(C(=O)NCc2cccc(/C=C/C(=O)O)c2)c1` [Example 2, 3-[3-[[[[3-[(aminoiminomethyl)amino]phenyl]carbonyl]amino]methyl]phenyl]-2-propenoic acid, trifluoroacetate salt], the values for the IC50 in test [1] (setting [3]) and in test [2] were 13 nM and 657 nM, respectively.

Regarding `CCOC(=O)/C=C/c1ccc(NC(=O)c2cccc(NC(=N)N)c2)cc1` [Example 3, ethyl 3-[4-[[[3-[(aminoiminomethyl)amino]phenyl]carbonyl]amino]phenyl]-2-propenoate, monohydrate trifluoroacetate salt], the IC50 in test [1] (setting [3]) was found to be 29000 nM; in test [2], 32200 nM.

As for `N=C(N)Nc1cccc(C(=O)Nc2ccc(/C=C/C(=O)O)cc2)c1` [Example 4, 3-[4-[[[3-[(aminoiminomethyl)amino]phenyl]carbonyl]amino]phenyl]-2-propenoic acid, trifluoroacetate salt], the IC50 was 10.6 nM in test [1] (setting [3]) and 7.05 nM in test [2].

Take `Cc1cc(/C=C/C(=O)O)ccc1NC(=O)c1cccc(NC(=N)N)c1` [Example 5, 3-[4-[[[3-[(arainoiminomethyl)amino]phenyl]carbonyl]amino]-3-methylphenyl]propenoic acid, trifluoroacetate salt]: the figures for the IC50 in test [1] (setting [3]) and in test [2] were 4.01 nM and 9.58 nM, respectively.

As for `CCc1cc(/C=C/C(=O)O)ccc1NC(=O)c1cccc(NC(=N)N)c1` [Example 7, 3-[4-[[[3-[(aminoiminomethyl)amino]phenyl]carbonyl]amino]-3-ethylphenyl]propenoic acid, trifluoroacetate salt], the figures for the IC50 in test [1] (setting [3]) and in test [2] were 2.95 nM and 15.1 nM, respectively.

For `N=C(N)Nc1cccc(C(=O)Nc2ccc(/C=C/C(=O)O)cc2Cl)c1` [Example 9, 3-[4-[[[3-[(aminoiminomethyl)amino]phenyl]-carbonyl]amino]3-chlorophenyl]propenoic acid, trifluoroacetate salt], the IC50 came to 3.46 nM in test [1] (setting [3]) and 11 nM in test [2].

As for `N=C(N)Nc1cccc(C(=O)Nc2ccc(/C=C/C(=O)O)cc2F)c1` [Example 11, 3-[4-[[[3-[(aminoiminomethyl)aminolphenyl]carbonyl]-amino]-3-fluorophenyl]-2E-propenoic acid, trifluoroacetate salt], the 50% inhibitory concentration (IC50) in test [1] (setting [3]) stood at 7.07 nM; in test [2], 14.1 nM.

Take `N=C(N)Nc1cccc(C(=O)Nc2ccc(/C=C/C(=O)O)c(Cl)c2)c1` [Example 28, 3-[4-[[[3-[(aminoiminomethyl)amino]phenyl]carbonyl]-amino]-2-chlorophenyl]propenoic acid, trifluoroacetate salt]: the half-maximal inhibitory concentration (IC50) in test [1] (setting [3]) amounted to 23.3 nM.

Turning to `N=C(N)NCCCCC(=O)NCC(=O)NC(CC(=O)O)c1cccnc1` (stereo not drawn) [β-[[2-[[5-[(aminoiminomethyl)amino]-1-oxopentyl]amino]-1-oxoethyl]amino]-3-pyridinepropanoic acid], the IC50 in test [1] (positive control included on each plate, read-out: αv β3 antagonist IC50 of positive control) was in the range of 3 to 10 nM.
